In experiment [1] the target is T1, APOL1 G2 (Homo sapiens, UniProt O14791, DEL388-389).
T1 construct: expressed in transfected cells; host or cells: HEK293/T-REx APOL1 G2 clone #2, doxycycline-inducible
T1 sequence (O14791 with tags, fused parts or gaps DEL388-389): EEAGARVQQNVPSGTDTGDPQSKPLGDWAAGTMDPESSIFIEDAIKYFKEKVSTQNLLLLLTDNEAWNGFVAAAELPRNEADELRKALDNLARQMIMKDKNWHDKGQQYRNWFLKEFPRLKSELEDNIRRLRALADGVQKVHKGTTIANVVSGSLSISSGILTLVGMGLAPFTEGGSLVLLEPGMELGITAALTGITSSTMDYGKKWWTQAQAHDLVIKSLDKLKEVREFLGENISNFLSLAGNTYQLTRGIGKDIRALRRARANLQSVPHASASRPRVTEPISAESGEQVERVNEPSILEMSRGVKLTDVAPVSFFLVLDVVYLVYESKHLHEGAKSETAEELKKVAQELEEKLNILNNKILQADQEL
The experiment can be described thus: APOL1 G2 FLIPR calcium influx assay (HEK T-REx/GCaMP6f/APOL1 G2 K6.3 cells). Type of experiment: cell-based. The following applies: HEK293 clone expressing GCaMP6f, doxycycline-induced APOL1 G2; prevention of calcium influx; geometric mean of at least 2 assay runs. The method in brief:
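HEK293 clone stably expressing GCaMP6f, APOL1 G2 induced with doxycycline for 6 h; compounds (duplicate 8-point dose response) preincubated 10 min at room temperature in Ca2+-free Tyrode's buffer, pH 7.4. Ca2+ added to 5 mM final, influx read on FLIPR; AC50 is geometric mean of ≥2 runs.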

Experiment [2] concerns the target T1, APOL1 G2. Nature of the experiment: APOL1 G2 HEK293 rescue of cell death caused by overexpression of APOL1 (CellTiter-Glo). It is filed as cell-based. Conditions: HEK293/T-REx APOL1 G2 clone #2, doxycycline induction, 17 hours, CellTiter-Glo luminescence; reversal of cell death; geometric mean of at least 2 assay runs. The method in brief: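 Doxycycline (6 ng/mL)-induced HEK293/T-REx APOL1 G2 clone seeded at 5,000 cells/well with compound in duplicate 8-point 3-fold series (0.5% DMSO), 17 h at 37 °C. CellTiter-Glo luminescence; EC50 from four-parameter logistic fit, geometric mean of ≥2 runs.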
(In general: Cellular ATP, detected with luciferase, serves as a proxy for viable cell number.)

What is called AC50 is the concentration at which the activity in the assay is half-maximal. In general, EC50 refers to the concentration at which the effect is half-maximal.

Regarding `CS(=O)(=O)C1(c2ccc(OC[C@@H]3CN(CCc4cc(Cl)cc(C#N)c4)CCN3)cc2)COC1` [Compound 111, 3-chloro-5-{2-[(3S)-3-{[4-(3-methanesulfonyloxetan-3-yl)phenoxy]methyl}piperazin-1-yl]ethyl}benzonitrile], in experiment [1], the AC50 was below 116 nM. For the same compound, the EC50 in experiment [2] was found to be 137 nM.
On the same counts, the results for `Cc1cc(OC[C@@H]2CN(CCc3cc(Cl)cc(C#N)c3)CCN2)ccc1S(C)(=O)=O` [Compound 112, 3-chloro-5-{2-[(3S)-3-[(4-methanesulfonyl-3-methylphenoxy)methyl]piperazin-1-yl]ethyl}benzonitrile] are 409 nM and 296 nM.
The matching figures for `CS(=O)(=O)c1ccc(OC[C@@H]2CN(CCc3cccc(C#N)c3)CCN2)cc1C(F)(F)F` [Compound 113, 3-{2-[(3S)-3-{[4-methanesulfonyl-3-(trifluoromethyl)phenoxy]methyl}piperazin-1-yl]ethyl}benzonitrile]: 634 nM and 726 nM.
For the compound `CS(=O)(=O)c1ccc(OC[C@@H]2CN(CCc3cc(Cl)cc(C#N)c3)CCN2)cc1C(F)(F)F` [Compound 114, 3-chloro-5-{2-[(3S)-3-{[4-methanesulfonyl-3-(trifluoromethyl)phenoxy]methyl}piperazin-1-yl]ethyl}benzonitrile], the AC50 in experiment [1] was determined as 868 nM. Also, the EC50 in experiment [2] is 295 nM.
For the compound `C[C@@H]1CN(C(CO)Cc2cccc(Cl)c2)C[C@H]1COc1ccc(S(C)(=O)=O)cc1` (stereo partly drawn) [Compound 115, 3-(3-chlorophenyl)-2-[(3S,4S)-3-[(4-methanesulfonylphenoxy)methyl]-4-methylpyrrolidin-1-yl]propan-1-ol], the AC50 in experiment [1] is 470 nM. Further, the EC50 in experiment [2] was 1830 nM.
With `C[C@@H]1CN(C(CO)Cc2cc(Cl)cc(C#N)c2)C[C@H]1COc1ccc(S(C)(=O)=O)cc1` (stereo partly drawn) [Compound 120, 3-chloro-5-[3-hydroxy-2-[(3S,4S)-3-[(4-methanesulfonylphenoxy)methyl]-4-methylpyrrolidin-1-yl]propyl]benzonitrile], the AC50 in experiment [1] turned out to be 480 nM. In addition, the half-maximal effective concentration (EC50) in experiment [2] came to 1040 nM.
For `C[C@@H]1CN(CC(CO)c2cc(Cl)cc(C#N)c2)C[C@H]1COc1ccc(S(C)(=O)=O)cc1` (stereo partly drawn) [Compound 126, 3-chloro-5-(1-hydroxy-3-((3S,4S)-3-methyl-4-((4-(methylsulfonyl)phenoxy)methyl)pyrrolidin-1-yl)propan-2-yl)benzonitrile], the AC50 in experiment [1] turned out to be 1740 nM. Further, the EC50 in experiment [2] came out at 2760 nM.
The matching figures for `CS(=O)(=O)c1ccc(OC[C@@H]2CCCN(C3CCc4ccc(Cl)cc4C3)C2)cc1` (stereo partly drawn) [Compound 131, (3R)-1-(7-chloro-1,2,3,4-tetrahydronaphthalen-2-yl)-3-[(4-methanesulfonylphenoxy)methyl]piperidine]: below 229 nM and 994 nM.
Regarding `CC(c1ccc(OC[C@@H]2CN(CCc3cccc(Cl)c3)CCN2)cc1)S(C)(=O)=O` (stereo partly drawn) [Compound 140, (3S)-1-[2-(3-chlorophenyl)ethyl]-3-{[4-(1-methanesulfonylethyl)phenoxy]methyl}piperazine], the AC50 in experiment [1] was determined as 379 nM. Besides, the EC50 in experiment [2] stood at 756 nM.
Take `C[C@H]1C[C@H](COc2ccc(S(C)(=O)=O)cc2)CN1CCc1cccc(Cl)c1` [Compound 143, (2S,4S)-1-[2-(3-chlorophenyl)ethyl]-4-[(4-methanesulfonylphenoxy)methyl]-2-methylpyrrolidine]: in experiment [1], the AC50 was 936 nM. The concentration giving a half-maximal response (EC50) in experiment [2] worked out at 1200 nM.
In the case of `C[C@@H]1C[C@@H](COc2ccc(S(C)(=O)=O)cc2)CN1CCc1cccc(Cl)c1` [Compound 145, (2R,4R)-1-[2-(3-chlorophenyl)ethyl]-4-[(4-methanesulfonylphenoxy)methyl]-2-methylpyrrolidine], the concentration at half-maximal activity (AC50) in experiment [1] was determined as 1130 nM. Further, the EC50 in experiment [2] amounted to 1770 nM.

(Values after patent US20260055083A1, “APOL1 INHIBITORS AND METHODS OF USE” (Maze Therapeutics, Inc., priority 2022, published 2026).)
